Laboratory results taken from patent US9241487B2, “Pyrimidine derivatives and use thereof as pesticides” (BAYER INTELLECTUAL PROPERTY GMBH, priority 2010, dated 2016).

Columns and labels:
Type in all cases: in vivo
Leptosphaeria nodorum = Leptosphaeria nodorum test (wheat)/protective; conditions: Parastagonospora nodorum, wheat plants, protective spray, evaluation 7-9 days after inoculation, read-out: Efficacy (%)
Experimental: Leptosphaeria nodorum Test (Wheat)/Protective
(§1) Solvent: 49 parts by weight of N,N-dimethylformamide
(§2) Emulsifier: 1 part by weight of alkylaryl polyglycol ether
To produce a suitable preparation of active compound, 1 part by weight of active compound is mixed with the stated amounts of solvent and emulsifier, and the concentrate is diluted with water to the desired concentration. To test for protective activity, young wheat plants are sprayed with the preparation of active compound at the stated application rate. 1 day after the treatment, the plants are inoculated with an aqueous spore suspension of Leptosphaeria nodorum and then remain at 100% relative atmospheric humidity and 22° C. for 48 h. The plants are then placed in a greenhouse at 90% relative atmospheric humidity and a temperature of 22° C. Evaluation is carried out 7-9 days after the inoculation. 0% means an efficacy which corresponds to that of the control, whereas an efficacy of 100% means that no infection is observed. In this test, the following compounds according to the invention show, at an active compound concentration of 500 ppm, an efficacy of 70% or more: […]

Venturia inaequalis = experiment: Venturia test (apple)/protective; conditions: 240 h, protective spray, evaluation 10 days after inoculation, read-out: Efficacy (%)
Experimental: Venturia Test (Apple)/Protective
Solvents: 24.5 parts by weight of acetone
• 24.5 parts by weight of dimethylacetamide Emulsifier: 1 part by weight of alkylaryl polyglycol ether
To produce a suitable preparation of active compound, 1 part by weight of active compound is mixed with the stated amounts of solvent and emulsifier, and the concentrate is diluted with water to the desired concentration. To test for protective activity, young plants are sprayed with the preparation of active compound at the stated application rate. After the spray coating has dried on, the plants are inoculated with an aqueous conidia suspension of the apple scab pathogen Venturia inaequalis and then remain in an incubation cabin at approx. 20° C. and 100% relative air humidity for 1 day. The plants are then placed in the greenhouse at about 21° C. and a relative atmospheric humidity of about 90%. Evaluation follows 10 days after the inoculation. 0% means an efficacy which corresponds to that of the control, whereas an efficacy of 100% means that no infection is observed.
In this test, the following compounds according to the invention show, at an active compound concentration of 100 ppm, an efficacy of 70% or more: […]

[1] = tested on: Blumeria graminis fsp. hordei; experiment: Blumeria graminis test (barley)/protective; conditions: 168 h, protective spray, evaluation 7 days after inoculation, read-out: Efficacy (%)
Experimental: Blumeria graminis Test (Barley)/Protective
(§3) Solvent: 49 parts by weight of N,N-dimethylacetamide
as §2
To produce a suitable preparation of active compound, 1 part by weight of active compound is mixed with the stated amounts of solvent and emulsifier, and the concentrate is diluted with water to the desired concentration. To test for protective activity, young plants are sprayed with the preparation of active compound at the stated application rate. After the spray coating has dried on, the plants are dusted with spores of Blumeria graminis fsp. hordei. The plants are placed in a greenhouse at a temperature of about 18° C. and a relative air humidity of about 80% to promote the development of mildew pustules. Evaluation follows 7 days after the inoculation. 0% means an efficacy which corresponds to that of the control, whereas an efficacy of 100% means that no infection is observed.
(§4) In this test, the following compounds according to the invention show, at an active compound concentration of 500 ppm, an efficacy of 70% or more: […]

Sphaerotheca fuliginea = experiment: Sphaerotheca test (cucumber)/protective; conditions: Podosphaera fuliginea, 168 h, cucumber plants, protective spray, evaluation 7 days after inoculation, read-out: Efficacy (%)
Experimental: Sphaerotheca Test (Cucumber)/Protective
as §1, §2
To produce a suitable preparation of active compound, 1 part by weight of active compound is mixed with the stated amounts of solvent and emulsifier, and the concentrate is diluted with water to the desired concentration. To test for protective activity, young cucumber plants are sprayed with the preparation of active compound at the stated application rate. 1 day after the treatment, the plants are inoculated with a spore suspension of Sphaerotheca fuliginea. The plants are then placed in a greenhouse at 70% relative air humidity and a temperature of 23° C. Evaluation follows 7 days after the inoculation. 0% means an efficacy which corresponds to that of the control, whereas an efficacy of 100% means that no infection is observed. In this test, the following compounds according to the invention show, at an active compound concentration of 500 ppm, an efficacy of 70% or more: […]

Puccinia triticina = Puccinia triticina test (wheat)/protective; conditions: 192 h, protective spray, evaluation 8 days after inoculation, read-out: Efficacy (%)
Experimental: Puccinia triticina Test (Wheat)/Protective
as §3, §2
(§5) To produce a suitable preparation of active compound, 1 part by weight of active compound is mixed with the stated amounts of solvent and emulsifier, and the concentrate is diluted with water to the desired concentration. To test for protective activity, young plants are sprayed with the preparation of active compound at the stated application rate. After the spray coating has dried on, the plants are sprayed with spores with a spore suspension of Puccinia triticina. The plants remain in an incubation cabin at 20° C. and 100% relative atmospheric humidity for 48 hours. The plants are placed in a greenhouse at a temperature of about 20° C. and a relative atmospheric humidity of about 80%. Evaluation follows 8 days after the inoculation. 0% means an efficacy which corresponds to that of the control, whereas an efficacy of 100% means that no infection is observed.
as §4

Septoria tritici = Septoria tritici test (wheat)/protective; conditions: Zymoseptoria tritici, 504 h, protective spray, evaluation 21 days after inoculation, read-out: Efficacy (%)
Experimental: Septoria tritici Test (Wheat)/Protective
as §3, §2
as §5, with “with” for “with spores with”, “of Septoria tritici.” for “of Puccinia triticina.”, “hours. Thereafter, the plants are placed under a translucent hood at 15° C. and 100% relative air humidity for a further 60 hours.” for “hours.”, “about 15°” for “about 20°”, “follows 21” for “follows 8”
as §4

| Structure (SMILES) | pest or weed control at 500 ppm (Leptosphaeria nodorum) | pest or weed control at 100 ppm (Venturia inaequalis) | pest or weed control at 500 ppm [1] | pest or weed control at 500 ppm (Sphaerotheca fuliginea) | pest or weed control at 500 ppm (Puccinia triticina) | pest or weed control at 500 ppm (Septoria tritici) |
| --- | --- | --- | --- | --- | --- | --- |
| CC(C)(C)C(O)(COc1ccc(OC(F)(F)F)cc1)c1cncnc1 (stereo not drawn) [Compound 12] | 95% | 99% | 100% | 100% | 100% | 100% |
| CC1(C(O)(COc2ccc(OC(F)(F)F)cc2)c2cncnc2)CC1 (stereo not drawn) [Compound 18] | 95% | 99% | 100% | 95% | 100% | 100% |
| CC(C)C(O)(COc1ccc(OC(F)(F)F)cc1)c1cncnc1 (stereo not drawn) [Compound 2] | 100% | 94% | 100% | 99% | 100% | 93% |
| CC(C)(C)C(O)(COc1ccc(SC(F)(F)F)cc1)c1cncnc1 (stereo not drawn) [Compound 17] | 94% | 100% | 100% | 95% | 100% | 100% |
